pIC50: −log10 of the molar value.
Key:
[1] = test system: MMP-1 (Matrix Metalloproteinase-1) production in SW1353 human chondrosarcoma cells; assay: glucocorticoid inhibition of IL-1 induced MMP-1 production in human chondrosarcoma cells; format: cell-based; settings: 20 ng/ml IL-1 beta, 72 hours after IL-1 addition, ELISA, read-out: IC50, inhibitor of MMP1 expression
Method: (§1) This assay, the glucocorticoid inhibition of IL-1 (Interleukin-1) induced MMP-1 (Matrix Metalloproteinase-1) and IL-8 (Interleukin-8) production in human chondrosarcoma cells, is conducted as follows: SW1353 human chondrosarcoma cells (obtained from ATCC) from passage 12 through passage 19 are used in a 96 well format assay. Cells are plated at confluence into 96 well plates in DMEM (Dulbecco's Modified Eagle Medium) with 10% fetal bovine serum and incubated at 37° C., 5% CO2. After 24 hours, serum containing media is removed and replaced with 200 ul/well DMEM containing 1 mg/L insulin, 2 g/L lactalbumin hydrosylate, and 0.5 mg/L ascorbic acid and returned to incubation at 37° C., 5% CO2. […] IL-8 production is assessed using the Quantikine human IL-8 ELISA kit from R&D Systems (D8050) on samples diluted 60-fold in RD5P Calibrator Diluent, following the manufacturer's protocol. The percent of the average IL-1 control is determined for the average of each of the triplicate samples following subtraction of the average signal from untreated cells. IC50's are determined from log linear plots of the percent of control versus the concentration of inhibitor. […] MMP-1 production is assessed via the Bio-Trak MMP-1 ELISA kit from Amersham (RPN2610) on 100 ul of neat sample following the manufacturer's protocol. […]

[2] = test system: IL-8 (Interleukin-8) production in SW1353 human chondrosarcoma cells; assay: glucocorticoid inhibition of IL-1 induced IL-8 production in human chondrosarcoma cells; format: cell-based; settings: 20 ng/ml IL-1 beta, 24 hours after addition of IL-1, ELISA, read-out: IC50, inhibitor of IL-8 expression
Method: as §1

C[C@@H]1C[C@H]2[C@@H]3CCC4=CC(=O)C=C[C@]4(C)[C@@]3(F)[C@@H](O)C[C@]2(C)[C@@]1(O)C(=O)CO [Dexamethasone, (11β, 16α)-9-fluoro-11,17,21-trihydroxy-16-methylpregna-1,4-diene-3,20-dione]
pIC50 [1]: 8.30
pIC50 [2]: 8.30
